In publication PMC6100082, “Pyridine-Ureas as Potential Anticancer Agents: Synthesis and In Vitro Biological Evaluation” (Molecules : A Journal of Synthetic Chemistry and Natural …, 2018):

Assays:
Assay type in all cases: cell-based, human
SF-268 = assay: NCI one-dose SRB assay (CNS Cancer); conditions: for inhibition at 10 µM: Homo sapiens, SF-268, 10 μM, read-out: Percentage growth inhibition (GI%); for Growth Percent: SF-268, 1.00E-5 Molar
Description: (§1) The structures of all the newly prepared pyridine-ureas 8a–n were submitted to the National Cancer Institute (NCI) Developmental Therapeutic Program. Eight compounds 8b, 8d, 8e, 8i, 8j and 8l–n were selected to be examined for their in vitro growth inhibitory activity. The anticancer assays were carried out according to the protocol of the Drug Evaluation Branch, NCI, Bethesda. The selected pyridine-ureas were tested at one dose primary anticancer assay against a panel of approximately 58 cancer lines (concentration 10^−5 M). The tested human cancer cell lines emerged from nine different cancer subtypes: leukemia, colon, melanoma, ovarian, lung, CNS, renal, breast and prostate cancers. The sulforhodamine B (SRB) protein assay was adopted to estimate the cell viability and growth. The results were reported as mean-graph of the percentage growth of the treated cells, and presented as percentage growth inhibition (GI%) caused by the test compounds (Table 2).
(§2) The anticancer assays were performed in accordance with the protocol of the Drug Evaluation Branch, NCI, Bethesda. A 48 h drug exposure protocol was used and sulforhodamine B (SRB) protein assay was applied to estimate the cell viability and growth, as reported earlier.

SF-295 = assay: NCI one-dose SRB assay (CNS Cancer); conditions: for inhibition at 10 µM: Homo sapiens, SF-295, 10 μM, read-out: Percentage growth inhibition (GI%); for Growth Percent: SF-295, 1.00E-5 Molar
Description: as §1, §2

SF-539 = assay: NCI one-dose SRB assay (CNS Cancer); conditions: for inhibition at 10 µM: Homo sapiens, SF-539, 10 μM, read-out: Percentage growth inhibition (GI%); for Growth Percent: SF-539, 1.00E-5 Molar
Description: as §1, §2

SNB-19 = assay: NCI one-dose SRB assay (CNS Cancer); conditions: for inhibition at 10 µM: Homo sapiens, SNB-19, 10 μM, read-out: Percentage growth inhibition (GI%); for Growth Percent: SNB-19, 1.00E-5 Molar
Description: as §1, §2

SNB-75 = assay: NCI one-dose SRB assay (CNS Cancer); conditions: for inhibition at 10 µM: Homo sapiens, SNB-75, 10 μM, read-out: Percentage growth inhibition (GI%); for Growth Percent: SNB-75, 1.00E-5 Molar
Description: as §1, §2

U251 = assay: NCI one-dose SRB assay (CNS Cancer); conditions: for inhibition at 10 µM: Homo sapiens, U-251, U251, 10 μM, read-out: Percentage growth inhibition (GI%); for Growth Percent: U251, 1.00E-5 Molar
Description: as §1, §2

LOX IMVI = assay: NCI one-dose SRB assay (Melanoma); conditions: for Growth Percent: 1.00E-5 Molar; for inhibition at 10 µM: Homo sapiens, read-out: Percentage growth inhibition (GI%)
Description: as §1, §2

M14 = assay: NCI one-dose SRB assay (Melanoma); conditions: for inhibition at 10 µM: Homo sapiens, M14, 10 μM, read-out: Percentage growth inhibition (GI%); for Growth Percent: M14, 1.00E-5 Molar
Description: as §1, §2

MALME-3M = assay: NCI one-dose SRB assay (Melanoma); conditions: for Growth Percent: 1.00E-5 Molar; for inhibition at 10 µM: Homo sapiens, read-out: Percentage growth inhibition (GI%)
Description: as §1, §2

MDA-MB-435 = assay: NCI one-dose SRB assay (Melanoma); conditions: for inhibition at 10 µM: Homo sapiens, MDA-MB-435, 10 μM, read-out: Percentage growth inhibition (GI%); for Growth Percent: MDA-MB-435, 1.00E-5 Molar
Description: as §1, §2

SK-MEL-2 = assay: NCI one-dose SRB assay (Melanoma); conditions: for inhibition at 10 µM: Homo sapiens, SK-MEL-2, 10 μM, read-out: Percentage growth inhibition (GI%); for Growth Percent: SK-MEL-2, 1.00E-5 Molar
Description: as §1, §2

SK-MEL-5 = assay: NCI one-dose SRB assay (Melanoma); conditions: for inhibition at 10 µM: Homo sapiens, SK-MEL-5, 10 μM, read-out: Percentage growth inhibition (GI%); for Growth Percent: SK-MEL-5, 1.00E-5 Molar
Description: as §1, §2

UACC-62 = assay: NCI one-dose SRB assay (Melanoma); conditions: for inhibition at 10 µM: Homo sapiens, UACC-62, 10 μM, read-out: Percentage growth inhibition (GI%); for Growth Percent: UACC-62, 1.00E-5 Molar
Description: as §1, §2

IGROV1 = assay: NCI one-dose SRB assay (Ovarian Cancer); conditions: for inhibition at 10 µM: Homo sapiens, IGROV-1, IGROV1, 10 μM, read-out: Percentage growth inhibition (GI%); for Growth Percent: IGROV1, 1.00E-5 Molar
Description: as §1, §2

NCI/ADR-RES = assay: NCI one-dose SRB assay (Ovarian Cancer); conditions: for Growth Percent: 1.00E-5 Molar; for inhibition at 10 µM: Homo sapiens, read-out: Percentage growth inhibition (GI%)
Description: as §1, §2

OVCAR-3 = assay: NCI one-dose SRB assay (Ovarian Cancer); conditions: for inhibition at 10 µM: Homo sapiens, OVCAR-3, 10 μM, read-out: Percentage growth inhibition (GI%); for Growth Percent: OVCAR-3, 1.00E-5 Molar
Description: as §1, §2

OVCAR-4 = assay: NCI one-dose SRB assay (Ovarian Cancer); conditions: for inhibition at 10 µM: Homo sapiens, OVCAR-4, 10 μM, read-out: Percentage growth inhibition (GI%); for Growth Percent: OVCAR-4, 1.00E-5 Molar
Description: as §1, §2

OVCAR-5 = assay: NCI one-dose SRB assay (Ovarian Cancer); conditions: for inhibition at 10 µM: Homo sapiens, OVCAR-5, 10 μM, read-out: Percentage growth inhibition (GI%); for Growth Percent: OVCAR-5, 1.00E-5 Molar
Description: as §1, §2

OVCAR-8 = assay: NCI one-dose SRB assay (Ovarian Cancer); conditions: for inhibition at 10 µM: Homo sapiens, OVCAR-8, 10 μM, read-out: Percentage growth inhibition (GI%); for Growth Percent: OVCAR-8, 1.00E-5 Molar
Description: as §1, §2

SK-OV-3 = assay: NCI one-dose SRB assay (Ovarian Cancer); conditions: for inhibition at 10 µM: Homo sapiens, SK-OV-3, 10 μM, read-out: Percentage growth inhibition (GI%); for Growth Percent: SK-OV-3, 1.00E-5 Molar
Description: as §1, §2

BT-549 = assay: NCI one-dose SRB assay (Breast Cancer); conditions: for Growth Percent: BT-549, 1.00E-5 Molar; for inhibition at 10 µM: Homo sapiens, BT-549, 10 μM, read-out: Percentage growth inhibition (GI%)
Description: as §1, §2

HS 578T = assay: NCI one-dose SRB assay (Breast Cancer); conditions: for Growth Percent: 1.00E-5 Molar; for inhibition at 10 µM: Homo sapiens, read-out: Percentage growth inhibition (GI%)
Description: as §1, §2

MCF7 = assay: NCI one-dose SRB assay (Breast Cancer); conditions: for inhibition at 10 µM: Homo sapiens, MCF7, 10 μM, read-out: Percentage growth inhibition (GI%); for Growth Percent: MCF7, 1.00E-5 Molar
Description: as §1, §2

MDA-MB-231 = assay: NCI one-dose SRB assay (Breast Cancer); conditions: for inhibition at 10 µM: Homo sapiens, MDA-MB-231, 10 μM, read-out: Percentage growth inhibition (GI%); for Growth Percent: MDA-MB-231/ATCC, 1.00E-5 Molar
Description: as §1, §2

MDA-MB-468 = assay: NCI one-dose SRB assay (Breast Cancer); conditions: for inhibition at 10 µM: Homo sapiens, MDA-MB-468, 10 μM, read-out: Percentage growth inhibition (GI%); for Growth Percent: MDA-MB-468, 1.00E-5 Molar
Description: as §1, §2

T-47D = assay: NCI one-dose SRB assay (Breast Cancer); conditions: for Growth Percent: 1.00E-5 Molar; for inhibition at 10 µM: Homo sapiens, T47D, read-out: Percentage growth inhibition (GI%)
Description: as §1, §2

SMILES: COc1ccc(-c2ccc(NC(=O)Nc3ccc(Cl)c(C(F)(F)F)c3)c(C)n2)cc1 [Compound 8e, 1-(4-Chloro-3-(trifluoromethyl)phenyl)-3-(6-(4-methoxyphenyl)-2-methylpyridin-3-yl)urea]
- inhibition at 10 µM (SF-268): 27%
- Growth Percent (SF-268): 73.73%
- inhibition at 10 µM (SF-295): 54%
- Growth Percent (SF-295): 46.97%
- inhibition at 10 µM (SF-539): 19%
- Growth Percent (SF-539): 81.32%
- inhibition at 10 µM (SNB-19): 43%
- Growth Percent (SNB-19): 57.33%
- inhibition at 10 µM (SNB-75): 27%
- Growth Percent (SNB-75): 73.44%
- inhibition at 10 µM (U251): 67%
- Growth Percent (U251): 33.63%
- Growth Percent (LOX IMVI): 64.51%
- inhibition at 10 µM (LOX IMVI): 36%
- inhibition at 10 µM (M14): 69%
- Growth Percent (M14): 31.87%
- Growth Percent (MALME-3M): 82.56%
- inhibition at 10 µM (MALME-3M): 18%
- inhibition at 10 µM (MDA-MB-435): 29%
- Growth Percent (MDA-MB-435): 71.95%
- inhibition at 10 µM (SK-MEL-2): 38%
- Growth Percent (SK-MEL-2): 62.13%
- inhibition at 10 µM (SK-MEL-5): 45%
- Growth Percent (SK-MEL-5): 55.66%
- inhibition at 10 µM (UACC-62): 35%
- Growth Percent (UACC-62): 65.57%
- inhibition at 10 µM (IGROV1): 48%
- Growth Percent (IGROV1): 52.86%
- Growth Percent (NCI/ADR-RES): 49.78%
- inhibition at 10 µM (NCI/ADR-RES): 51%
- inhibition at 10 µM (OVCAR-3): 73%
- Growth Percent (OVCAR-3): 27.65%
- inhibition at 10 µM (OVCAR-4): 55%
- Growth Percent (OVCAR-4): 45.11%
- inhibition at 10 µM (OVCAR-5): 11%
- Growth Percent (OVCAR-5): 89.11%
- inhibition at 10 µM (OVCAR-8): 43%
- Growth Percent (OVCAR-8): 57.40%
- inhibition at 10 µM (SK-OV-3): 32%
- Growth Percent (SK-OV-3): 68.11%
- Growth Percent (BT-549): 66.19%
- inhibition at 10 µM (BT-549): 34%
- Growth Percent (HS 578T): 76.98%
- inhibition at 10 µM (HS 578T): 24%
- inhibition at 10 µM (MCF7): 64%
- Growth Percent (MCF7): 36.68%
- inhibition at 10 µM (MDA-MB-231): 15%
- Growth Percent (MDA-MB-231): 85.04%
- inhibition at 10 µM (MDA-MB-468): 62%
- Growth Percent (MDA-MB-468): 38.52%
- Growth Percent (T-47D): 21.49%
- inhibition at 10 µM (T-47D): 79%

SMILES: COc1ccc(-c2ccc(NC(=O)Nc3cccc(C(F)(F)F)c3)c(C)n2)cc1OC [Compound 8i, 1-(6-(3,4-Dimethoxyphenyl)-2-methylpyridin-3-yl)-3-(3-(trifluoromethyl)phenyl) Urea]
- inhibition at 10 µM (SF-268): 25%
- Growth Percent (SF-268): 75.96%
- inhibition at 10 µM (SF-295): 35%
- Growth Percent (SF-295): 65.28%
- inhibition at 10 µM (SF-539): 23%
- Growth Percent (SF-539): 77.24%
- inhibition at 10 µM (SNB-19): 22%
- Growth Percent (SNB-19): 78.84%
- inhibition at 10 µM (SNB-75): 34%
- Growth Percent (SNB-75): 66.71%
- inhibition at 10 µM (U251): 37%
- Growth Percent (U251): 63.88%
- Growth Percent (LOX IMVI): 70.96%
- inhibition at 10 µM (LOX IMVI): 30%
- inhibition at 10 µM (M14): 69%
- Growth Percent (M14): 31.21%
- Growth Percent (MALME-3M): 95.26%
- inhibition at 10 µM (MALME-3M): < 10%
- inhibition at 10 µM (MDA-MB-435): 27%
- Growth Percent (MDA-MB-435): 73.17%
- inhibition at 10 µM (SK-MEL-2): 27%
- Growth Percent (SK-MEL-2): 73.78%
- inhibition at 10 µM (SK-MEL-5): 42%
- Growth Percent (SK-MEL-5): 58.49%
- inhibition at 10 µM (UACC-62): 19%
- Growth Percent (UACC-62): 81.66%
- inhibition at 10 µM (IGROV1): < 10%
- Growth Percent (IGROV1): 91.46%
- Growth Percent (NCI/ADR-RES): 66.87%
- inhibition at 10 µM (NCI/ADR-RES): 34%
- inhibition at 10 µM (OVCAR-3): 31%
- Growth Percent (OVCAR-3): 69.16%
- inhibition at 10 µM (OVCAR-4): 41%
- Growth Percent (OVCAR-4): 59.07%
- inhibition at 10 µM (OVCAR-5): < 10%
- Growth Percent (OVCAR-5): 94.03%
- inhibition at 10 µM (OVCAR-8): 19%
- Growth Percent (OVCAR-8): 81.32%
- inhibition at 10 µM (SK-OV-3): < 10%
- Growth Percent (SK-OV-3): 101.37%
- Growth Percent (BT-549): 71.52%
- inhibition at 10 µM (BT-549): 29%
- Growth Percent (HS 578T): 74.54%
- inhibition at 10 µM (HS 578T): 26%
- inhibition at 10 µM (MCF7): 38%
- Growth Percent (MCF7): 62.46%
- inhibition at 10 µM (MDA-MB-231): 31%
- Growth Percent (MDA-MB-231): 69.50%
- inhibition at 10 µM (MDA-MB-468): 51%
- Growth Percent (MDA-MB-468): 49.56%
- Growth Percent (T-47D): 53.57%
- inhibition at 10 µM (T-47D): 47%
